{"source": "the supplement of paper PMC10307832", "test_in_all_cases": "relative viability (nuclei count vs DMSO), 5 days (fraction); higher = more cells survive", "key": {"[1]": {"system": "201T", "how_it_was_run": "(§1)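 Each reported value is a median over duplicate plates. It expresses relative viability: treated-well nuclei count divided by vehicle-well nuclei count. Lung cancer cell lines in 1536-well plates were dosed by pin tool a day after seeding, alone with one drug or with a fixed anchor-drug dose plus five library-drug doses (not always all listed) in √10 steps, and nuclei were counted after 5 days.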"}, "[2]": {"system": "A-427", "how_it_was_run": "as §1"}, "[3]": {"system": "ABC-1", "how_it_was_run": "as §1"}, "[4]": {"system": "BEN", "how_it_was_run": "as §1"}, "[5]": {"system": "CAL-12T", "how_it_was_run": "as §1"}, "[6]": {"system": "H3255", "how_it_was_run": "as §1"}, "[7]": {"system": "LC-2-ad", "how_it_was_run": "as §1"}, "[8]": {"system": "LCLC-97TM1", "how_it_was_run": "as §1"}, "[9]": {"system": "NCI-H1650", "how_it_was_run": "as §1"}, "[10]": {"system": "NCI-H1651", "how_it_was_run": "as §1"}, "[11]": {"system": "NCI-H1915", "how_it_was_run": "as §1"}, "[12]": {"system": "NCI-H1944", "how_it_was_run": "as §1"}, "[13]": {"system": "NCI-H2023", "how_it_was_run": "as §1"}, "[14]": {"system": "NCI-H2087", "how_it_was_run": "as §1"}, "[15]": {"system": "NCI-H441", "how_it_was_run": "as §1"}, "[16]": {"system": "NCI-H460", "how_it_was_run": "as §1"}, "[17]": {"system": "NCI-H520", "how_it_was_run": "as §1"}, "[18]": {"system": "NCI-H596", "how_it_was_run": "as §1"}, "[19]": {"system": "NCI-H650", "how_it_was_run": "as §1"}, "[20]": {"system": "NCI-H661", "how_it_was_run": "as §1"}, "[21]": {"system": "NCI-H727", "how_it_was_run": "as §1"}, "[22]": {"system": "PC-3 [JPC-3]", "how_it_was_run": "as §1"}}, "data": [{"compound": "Cc1sc2c(c1C)C(c1ccc(Cl)cc1)=N[C@@H](CC(=O)OC(C)(C)C)c1nnc(C)n1-2", "note": "[JQ1] + CS(=O)(=O)N1CCN(Cc2cc3nc(-c4cccc5[nH]ncc45)nc(N4CCOCC4)c3s2)CC1 [Pictilisib] (partner 1 µM)", "values": [{"measurement": "relative viability", "setting": "[1]; first compound 0.04 µM", "result": 0.656}, {"measurement": "relative viability", "setting": "[1]; first compound 0.1265 µM", "result": 0.644}, {"measurement": "relative viability", "setting": "[1]; first compound 0.4 µM", "result": 0.519}, {"measurement": "relative viability", "setting": "[1]; first compound 1.265 µM", "result": 0.474}, {"measurement": "relative viability", "setting": "[1]; first compound 4 µM", "result": 0.399}, {"measurement": "relative viability", "setting": "[2]; first compound 0.04 µM", "result": 0.81}, {"measurement": "relative viability", "setting": "[2]; first compound 0.1265 µM", "result": 0.748}, {"measurement": "relative viability", "setting": "[2]; first compound 0.4 µM", "result": 0.674}, {"measurement": "relative viability", "setting": "[2]; first compound 1.265 µM", "result": 0.511}, {"measurement": "relative viability", "setting": "[2]; first compound 4 µM", "result": 0.465}, {"measurement": "relative viability", "setting": "[3]; first compound 0.04 µM", "result": 0.699}, {"measurement": "relative viability", "setting": "[3]; first compound 0.1265 µM", "result": 0.545}, {"measurement": "relative viability", "setting": "[3]; first compound 0.4 µM", "result": 0.512}, {"measurement": "relative viability", "setting": "[3]; first compound 1.265 µM", "result": 0.387}, {"measurement": "relative viability", "setting": "[3]; first compound 4 µM", "result": 0.365}, {"measurement": "relative viability", "setting": "[4]; first compound 0.04 µM", "result": 0.481}, {"measurement": "relative viability", "setting": "[4]; first compound 0.1265 µM", "result": 0.486}, {"measurement": "relative viability", "setting": "[4]; first compound 0.4 µM", "result": 0.461}, {"measurement": "relative viability", "setting": "[4]; first compound 1.265 µM", "result": 0.272}, {"measurement": "relative viability", "setting": "[4]; first compound 4 µM", "result": 0.205}, {"measurement": "relative viability", "setting": "[5]; first compound 0.04 µM", "result": 0.414}, {"measurement": "relative viability", "setting": "[5]; first compound 0.4 µM", "result": 0.457}, {"measurement": "relative viability", "setting": "[5]; first compound 1.265 µM", "result": 0.293}, {"measurement": "relative viability", "setting": "[5]; first compound 4 µM", "result": 0.36}, {"measurement": "relative viability", "setting": "[6]; first compound 0.04 µM", "result": 0.468}, {"measurement": "relative viability", "setting": "[6]; first compound 0.1265 µM", "result": 0.464}, {"measurement": "relative viability", "setting": "[6]; first compound 0.4 µM", "result": 0.552}, {"measurement": "relative viability", "setting": "[6]; first compound 1.265 µM", "result": 0.381}, {"measurement": "relative viability", "setting": "[6]; first compound 4 µM", "result": 0.338}, {"measurement": "relative viability", "setting": "[7]; first compound 0.04 µM", "result": 0.386}, {"measurement": "relative viability", "setting": "[7]; first compound 0.1265 µM", "result": 0.605}, {"measurement": "relative viability", "setting": "[7]; first compound 0.4 µM", "result": 0.263}, {"measurement": "relative viability", "setting": "[7]; first compound 1.265 µM", "result": 0.121}, {"measurement": "relative viability", "setting": "[7]; first compound 4 µM", "result": 0.117}, {"measurement": "relative viability", "setting": "[8]; first compound 0.1265 µM", "result": 0.28}, {"measurement": "relative viability", "setting": "[8]; first compound 0.4 µM", "result": 0.176}, {"measurement": "relative viability", "setting": "[8]; first compound 1.265 µM", "result": 0.105}, {"measurement": "relative viability", "setting": "[8]; first compound 4 µM", "result": 0.107}, {"measurement": "relative viability", "setting": "[9]; first compound 0.04 µM", "result": 0.625}, {"measurement": "relative viability", "setting": "[9]; first compound 0.1265 µM", "result": 0.445}, {"measurement": "relative viability", "setting": "[9]; first compound 0.4 µM", "result": 0.286}, {"measurement": "relative viability", "setting": "[9]; first compound 1.265 µM", "result": 0.122}, {"measurement": "relative viability", "setting": "[9]; first compound 4 µM", "result": 0.169}, {"measurement": "relative viability", "setting": "[10]; first compound 0.04 µM", "result": 0.476}, {"measurement": "relative viability", "setting": "[10]; first compound 0.1265 µM", "result": 0.451}, {"measurement": "relative viability", "setting": "[10]; first compound 0.4 µM", "result": 0.335}, {"measurement": "relative viability", "setting": "[10]; first compound 1.265 µM", "result": 0.271}, {"measurement": "relative viability", "setting": "[10]; first compound 4 µM", "result": 0.245}, {"measurement": "relative viability", "setting": "[11]; first compound 0.04 µM", "result": 0.89}, {"measurement": "relative viability", "setting": "[11]; first compound 0.1265 µM", "result": 0.872}, {"measurement": "relative viability", "setting": "[11]; first compound 0.4 µM", "result": 0.758}, {"measurement": "relative viability", "setting": "[11]; first compound 1.265 µM", "result": 0.494}, {"measurement": "relative viability", "setting": "[11]; first compound 4 µM", "result": 0.226}, {"measurement": "relative viability", "setting": "[12]; first compound 0.04 µM", "result": 0.357}, {"measurement": "relative viability", "setting": "[12]; first compound 0.1265 µM", "result": 0.332}, {"measurement": "relative viability", "setting": "[12]; first compound 0.4 µM", "result": 0.311}, {"measurement": "relative viability", "setting": "[12]; first compound 1.265 µM", "result": 0.288}, {"measurement": "relative viability", "setting": "[12]; first compound 4 µM", "result": 0.307}, {"measurement": "relative viability", "setting": "[13]; first compound 0.04 µM", "result": 0.234}, {"measurement": "relative viability", "setting": "[13]; first compound 0.1265 µM", "result": 0.268}, {"measurement": "relative viability", "setting": "[13]; first compound 0.4 µM", "result": 0.196}, {"measurement": "relative viability", "setting": "[13]; first compound 1.265 µM", "result": 0.161}, {"measurement": "relative viability", "setting": "[13]; first compound 4 µM", "result": 0.156}, {"measurement": "relative viability", "setting": "[14]; first compound 0.04 µM", "result": 0.792}, {"measurement": "relative viability", "setting": "[14]; first compound 0.4 µM", "result": 1.05}, {"measurement": "relative viability", "setting": "[14]; first compound 1.265 µM", "result": 0.318}, {"measurement": "relative viability", "setting": "[14]; first compound 4 µM", "result": 0.384}, {"measurement": "relative viability", "setting": "[15]; first compound 0.04 µM", "result": 0.475}, {"measurement": "relative viability", "setting": "[15]; first compound 0.1265 µM", "result": 0.561}, {"measurement": "relative viability", "setting": "[15]; first compound 0.4 µM", "result": 0.38}, {"measurement": "relative viability", "setting": "[15]; first compound 1.265 µM", "result": 0.234}, {"measurement": "relative viability", "setting": "[15]; first compound 4 µM", "result": 0.195}, {"measurement": "relative viability", "setting": "[16]; first compound 0.04 µM", "result": 0.398}, {"measurement": "relative viability", "setting": "[16]; first compound 0.4 µM", "result": 0.276}, {"measurement": "relative viability", "setting": "[16]; first compound 1.265 µM", "result": 0.204}, {"measurement": "relative viability", "setting": "[16]; first compound 4 µM", "result": 0.135}, {"measurement": "relative viability", "setting": "[17]; first compound 0.04 µM", "result": 0.282}, {"measurement": "relative viability", "setting": "[17]; first compound 0.1265 µM", "result": 0.283}, {"measurement": "relative viability", "setting": "[17]; first compound 0.4 µM", "result": 0.253}, {"measurement": "relative viability", "setting": "[17]; first compound 1.265 µM", "result": 0.174}, {"measurement": "relative viability", "setting": "[17]; first compound 4 µM", "result": 0.214}, {"measurement": "relative viability", "setting": "[18]; first compound 0.04 µM", "result": 0.412}, {"measurement": "relative viability", "setting": "[18]; first compound 0.1265 µM", "result": 0.395}, {"measurement": "relative viability", "setting": "[18]; first compound 0.4 µM", "result": 0.477}, {"measurement": "relative viability", "setting": "[18]; first compound 1.265 µM", "result": 0.365}, {"measurement": "relative viability", "setting": "[18]; first compound 4 µM", "result": 0.293}, {"measurement": "relative viability", "setting": "[19]; first compound 0.04 µM", "result": 0.746}, {"measurement": "relative viability", "setting": "[19]; first compound 0.1265 µM", "result": 0.654}, {"measurement": "relative viability", "setting": "[19]; first compound 0.4 µM", "result": 0.499}, {"measurement": "relative viability", "setting": "[19]; first compound 1.265 µM", "result": 0.283}, {"measurement": "relative viability", "setting": "[19]; first compound 4 µM", "result": 0.273}, {"measurement": "relative viability", "setting": "[20]; first compound 0.04 µM", "result": 0.426}, {"measurement": "relative viability", "setting": "[20]; first compound 0.1265 µM", "result": 0.326}, {"measurement": "relative viability", "setting": "[20]; first compound 0.4 µM", "result": 0.337}, {"measurement": "relative viability", "setting": "[20]; first compound 1.265 µM", "result": 0.365}, {"measurement": "relative viability", "setting": "[20]; first compound 4 µM", "result": 0.294}, {"measurement": "relative viability", "setting": "[21]; first compound 0.04 µM", "result": 0.371}, {"measurement": "relative viability", "setting": "[21]; first compound 0.1265 µM", "result": 0.554}, {"measurement": "relative viability", "setting": "[21]; first compound 0.4 µM", "result": 0.205}, {"measurement": "relative viability", "setting": "[21]; first compound 1.265 µM", "result": 0.233}, {"measurement": "relative viability", "setting": "[21]; first compound 4 µM", "result": 0.309}, {"measurement": "relative viability", "setting": "[22]; first compound 0.04 µM", "result": 0.69}, {"measurement": "relative viability", "setting": "[22]; first compound 0.1265 µM", "result": 0.727}, {"measurement": "relative viability", "setting": "[22]; first compound 0.4 µM", "result": 0.443}, {"measurement": "relative viability", "setting": "[22]; first compound 1.265 µM", "result": 0.501}, {"measurement": "relative viability", "setting": "[22]; first compound 4 µM", "result": 0.382}]}]}
